In ChEMBL document CHEMBL1157539, “Thousands of chemical starting points for antimalarial lead identification” (Nature, 2010):

Tested on: Plasmodium falciparum
Assay: GSK_TCMDC: Inhibition of Plasmodium falciparum 3D7 in whole erythrocytes, using parasite LDH activity as an index of growth.
Assay type: functional, organism-based
Details: Plasmodium falciparum, 3D7

| Structure (SMILES) | XC50 |
| --- | --- |
| COc1ccc(NC(=O)/C=C/c2ccc(Oc3ccccc3Cl)c([N+](=O)[O-])c2)cc1OCCN(C(C)C)C(C)C | 883 nM |
| COc1cc2nc(N3CCN(C(=O)c4ccco4)CC3)nc(NCc3ccccc3)c2cc1OC | 167 nM |
| CCCNCc1ccc(-c2ccc(CN(CCOC)C(=O)CC3CCCC3=O)cc2)nc1 (stereo not given) | 1240 nM |
| O=C(Nc1cccc(-c2nn3ccccc3c2-c2ccnc(Nc3ccc(Cc4ccncc4)cc3)n2)c1)c1c(F)cccc1F | 296 nM |
| COc1ccc(CN2CCCN(Cc3cccc(C(=O)Nc4ccc(C)c(F)c4)c3)CC2)cc1 | 1310 nM |
| Cc1cnccc1/C=C/c1cccc(OCCN2CCc3ccc(S(C)(=O)=O)cc3CC2)c1 | 267 nM |
| COc1ccc(C2C(C(=O)Nc3cc(C)ccc3OC)c3ccccc3C(=O)N2C)cc1 (stereo not given) | 982 nM |
| COc1cc(Cc2cnc(N)nc2N)cc(OCCCCc2ccc([N+](=O)[O-])cc2)c1OC | 989 nM |
| COc1ccc(O)c(C(=O)c2cc(C(=O)NCCc3ccccc3)c(=O)n(CCc3ccccc3)c2)c1 | 1010 nM |
| c1ccc(-c2ccc3c(Nc4ccc5[nH]ncc5c4)ccnc3c2)nc1 | 822 nM |
| CC(C)N1CCN(C(CN2CCN(CCCOc3ccccc3-c3ccccc3)CC2)c2ccc(F)cc2)CC1 (stereo not given) | 789 nM |
| NCC1CCCN1Cc1cccc(-c2ccc(-c3nc4ccccc4[nH]3)s2)c1 (stereo not given) | 1040 nM |
| c1ccc(CCNc2ncnc3c2[nH]c2ccccc23)cc1 | 601 nM |
| COc1ccc(CCN2CCC(NCc3cccc(N(C)C)c3)CC2)cc1 | 1320 nM |
| CCC1(C)CC(CCNCc2ccccc2O)(c2ccc(F)cc2)CCO1 (stereo not given) | 880 nM |
| COc1cc2nc(NCC3CCCO3)n3nc(-c4ccccc4)nc3c2cc1OC (stereo not given) | 211 nM |
| CCCN1CCN(c2ccc(NS(=O)(=O)c3ccc(C(=O)Nc4ccc(Cl)cc4)cc3)cc2)CC1 | 1110 nM |
| Cc1noc(C)c1-c1ccc2c(Nc3ccc(Cl)cc3)c(C(N)=O)cnc2c1 | 826 nM |
| COc1c(F)ccc2ncc(Cl)c(CCN3CCC(NCc4ccc5c(n4)NC(=O)CS5)CC3)c12 | 544 nM |
| O=C(N[C@@H](CC1CCCCC1)C(=O)NC1CCCc2ccccc21)c1ccc(O)c(-c2ccc(Cl)c(Cl)c2)c1 (stereo not given in full) | 195 nM |
| N#Cc1ccccc1C1CCN(C2CCC(Nc3cc(-c4cccnc4)ccn3)CC2)CC1 (stereo not given) | 958 nM |
| CC(C)CCNCc1c(O)ccc2ccccc12 | 1670 nM |
| COc1cc2ncnc(Nc3ccc(OCc4ccccc4Br)c(OC)c3)c2cc1OC | 427 nM |
| CS(=O)(=O)Nc1cccc(-c2cnc3[nH]cc(-c4cc(N)cc(C(=O)O)c4)c3c2)c1 | 1080 nM |
| C(=Cc1nc2ccccc2s1)c1ccc2c(c1)OCCO2 | 393 nM |

| Structure (SMILES) | XC50 |
| --- | --- |
| NC1=Nc2ccc(Cl)cc2C1(O)c1ccccc1 (stereo not given) | 876 nM |
| COc1cc(N(Cc2ccc(F)cc2)C(=O)c2ccc(-c3ccccc3)cc2)ccc1OCCN1CCCC1 | 830 nM |
| CCc1cccc2c(C#N)cn(CC(=O)Nc3ccc(OC)cc3)c12 | 772 nM |
| O=c1cc(NCCCNCc2ccc(Cl)c(Cl)c2)[nH]c2ccc(C(F)(F)F)cc12 | 524 nM |
| CN(C)c1ccc2nc(N)nc(N)c2c1Cl | 475 nM |
| Cc1nc2c(c(O)c1Cl)-c1ccc(Oc3cccc(C(F)(F)F)c3)cc1C2=O | 37.9 nM |
| CN(C)CCNCc1cccc(-c2ccc3c(Nc4ccc(F)cc4Cl)ccnc3c2)c1 | 809 nM |
| Cc1cccnc1CNc1nccc2c(C)c(C)[nH]c12 | 849 nM |
| Cc1nnsc1C(=O)Nc1ccc(-c2cccc(-c3nc4cccc(C)c4[nH]3)c2)cc1 | 630 nM |
| Cc1nc(C)c(-c2ccc(C(F)(F)F)cc2)c(O)c1Br | 142 nM |
| Cc1ccccc1CCNC(=O)c1cnc(N2CCN(c3ccncc3)CC2)c(Cl)c1 | 1060 nM |
| COc1ccc(-c2cccc(NC(=O)c3cccc(Cl)c3)c2)cc1CN1CCNCC1 | 803 nM |
| COc1ccc2c(OC)ccc(CNCCCCCCNCc3ccc(OC)c4ccc(OC)cc34)c2c1 | 399 nM |
| CCCOc1ccc(CCCON2C(N)=NC(N)=NC2(C)C)cc1 | 3.2 nM |
| CC(C)(CNCc1ccc(F)c(F)c1)c1nc(-c2ccnc(N)n2)c(-c2ccc(Cl)c(O)c2)[nH]1 | 740 nM |
| COc1ccc(CCNCCCCCCNCCc2cccc([N+](=O)[O-])c2)cc1OC | 997 nM |
| O=S(=O)(Nc1ccc(CCN2CCC(N3CCCCC3)CC2)cc1)c1cccc2cccnc12 | 1060 nM |
| SC(=Nc1ccc2c(c1)OCCO2)NN=Cc1ccccn1 | 1050 nM |
| NC(=O)c1cccc(Nc2nccc(Nc3ccc(Oc4cccc(Cl)c4)c(Cl)c3)n2)c1 | 1280 nM |
| CNC(=O)c1cnc(Nc2ccc(OCC(O)CN(C)C)cc2)nc1Nc1cccc([N+](=O)[O-])c1 (stereo not given) | 617 nM |
| COC(=O)/C=C/c1ccc(CC(C)NCC(O)c2cccc(Br)c2)cc1 (stereo not given) | 725 nM |
| CC(C)CC(=O)N1CCNC[C@@H]1C(=O)NCc1ccc(Cl)c(Cl)c1 | 950 nM |
| CNCCNCc1cccc(-c2ccc(-c3nc4cccc(C)c4[nH]3)cc2)c1 | 798 nM |
| Cc1c(N=O)cc(C(C)(C)C)c(O)c1C(=O)Nc1ccc([N+](=O)[O-])cc1Cl | 775 nM |
| O=C(NCC1CN(Cc2ccc(N3CCCC3)o2)CCCO1)c1ccc2c(c1)OCO2 (stereo not given) | 839 nM |

| Structure (SMILES) | XC50 |
| --- | --- |
| CN1CCN(CCCN(Cc2ccc(-c3cccc(CNCc4ccc5c(c4)OCO5)c3)cc2)C(=O)NCCc2ccccc2)CC1 | 845 nM |
| O=C1Nc2cccc3c2C1(CCCCN1CCC(c2c[nH]c4cc(C(F)(F)F)ccc24)CC1)CCC3 (stereo not given) | 715 nM |
| O=C(NC1CC1)c1ccc(N2CCCC(COc3ccccc3F)C2)nc1 (stereo not given) | 897 nM |
| Cn1nc(-c2ccc(NC(=O)Nc3cc(C(F)(F)F)ccc3F)cc2)c2cnc(NCCCCN3CCCC3)nc21 | 531 nM |
| CCN(CC)CCOc1ccc(C(O)(C#CC(O)(c2ccc(C)cc2)c2ccc(OCCN(CC)CC)cc2)c2ccc(C)cc2)cc1 (stereo not given) | 903 nM |
| O=C(Nc1cccc(CN2CCN(C(=O)c3cccs3)CC2)c1)c1cccs1 | 782 nM |
| COc1ccc(N2CCN(CCCCNC(=O)c3ccc(NC(=O)c4ccc(Cl)c(Cl)c4)cc3)CC2)c(OC)c1 | 212 nM |
| COc1ccc2c(NN=Cc3cccnc3)ccnc2c1 | 684 nM |
| Clc1cccc(-c2nc(Nc3ccnc(-c4ccc(CN5CCOCC5)cc4)c3)c3ccccc3n2)c1 | 710 nM |
| NC1CCN(Cc2cccc(-c3csc(-c4nc5ccccc5[nH]4)c3)c2)C1 (stereo not given) | 892 nM |
| O=C(/C=C/c1ccc(Cl)cc1)NCCCCCN1CCCC(C(=O)Nc2ccc(F)c(Cl)c2)C1 (stereo not given) | 1120 nM |
| CC(=O)Nc1ccc(CN2CCC(CNC(=O)c3cc(-c4cccc(Cl)c4)cs3)C2)cc1 (stereo not given) | 1120 nM |
| COC(=O)c1ccc(CC(C)NCC(O)c2cccc(OC(F)(F)F)c2)cc1 (stereo not given) | 863 nM |
| N#Cc1cccc(C(=O)Nc2ccc(-c3ccc(CN4CCCC4)cc3)cc2)c1 | 1150 nM |
| Nc1cc(-c2ccc(-c3cccs3)s2)nc2ccccc12 | 598 nM |
| N#Cc1cccc(C(=O)Nc2cccc(-c3ccc(CN4CCCC4)cc3)c2)c1 | 695 nM |
| FC(F)(F)c1ccc2[nH]c(-c3ccc(-c4ccc(CNCCN5CCNCC5)cc4)s3)nc2c1 | 910 nM |
| COc1ccc(-c2c(-c3ccc(OCc4ccccc4)cc3O)n[nH]c2C(F)(F)F)cc1 | 1170 nM |
| C[C@H]1CN(Cc2cccc(-c3cc(CNC(=O)c4cccc(C(=O)c5ccc(Cl)c(Cl)c5)c4)ccc3F)c2)CCN1 | 1140 nM |
| CCC[C@@H]([C@@H](Cc1ccc(C)s1)C(=O)N[C@@H](CNC(C)=O)C(=O)Nc1nccs1)N(O)C=O | 176 nM |
| Cc1cc(NCCCCCCNc2cc(C)nc3c(C)cccc23)c2cccc(C)c2n1 | 406 nM |
| O=C(Nc1cc(Cl)cc(Cl)c1)c1cc(Cl)c(=O)n(Cc2cccc(Cl)c2)c1 | 752 nM |
| COc1cc2nc(N(C)C)nc(Nc3ccc(OCc4ccccc4)cc3)c2cc1OC | 71.8 nM |
| Oc1ccc(CCNc2nc(NCc3ccccc3-c3ccc(C(F)(F)F)cc3)nc(NC3CCNCC3)n2)cc1 | 924 nM |
| COc1ccc(OC)c2c1CCN(CCN1CCC(C(=O)Nc3ccc(C(=O)Nc4ccc(Cl)cc4)cc3)CC1)C2 | 582 nM |

| Structure (SMILES) | XC50 |
| --- | --- |
| N=C(NCCc1c[nH]c2ccccc12)NCc1ccccc1Cl | 112 nM |
| CON(C)C(=O)[C@@H](CCCCNC(=O)OCc1ccccc1)NC(=O)OC(C)(C)C | 195 nM |
| CN(C)CCOc1ccc(N2CCN(CCCCNC(=O)c3ccc(/C=C/c4cc(Cl)cc(Cl)c4)cc3)CC2)cc1 | 1000 nM |
| CCOc1cc2ncnc(Nc3ccc(OCc4c(Cl)cccc4Cl)c(OC)c3)c2cc1OCC | 1050 nM |
| COc1cc([N+](=O)[O-])ccc1NC(=O)Nc1ccc(OC(F)(F)F)cc1 | 1030 nM |
| CC1(C)N=C(N)N=C(N)N1c1ccc(Cl)c(Cl)c1 | 3.2 nM |
| Cc1nc(N)nc(N)c1OCCCOc1cccc(Cl)c1Cl | 2.56 nM |
| Cc1ccc2nc(Cl)c3cc(C(=O)NCCCN4CCCC4)sc3c2c1 | 1140 nM |
| O=C1CN(C(=O)CCC2CCCC2)C(c2ccc(F)cc2)c2cc(F)ccc2N1 (stereo not given) | 168 nM |
| COc1cc(NCCCNCc2cn(S(=O)(=O)c3ccccc3)c3ccccc23)nc2ccccc12 | 386 nM |
| Cc1ccc(Nc2ccnc(Nc3ccc(F)c(Cl)c3)n2)cc1O | 733 nM |
| CN1CCC=C(C(=O)NCC(C)(C)c2nc(-c3ccc(Cl)c(O)c3)c(-c3ccncc3)[nH]2)C1 | 1000 nM |
| COc1cc2nc(N(C)CC3COc4ccccc4O3)nc(N)c2cc1OC (stereo not given) | 1550 nM |
| CCCN(CCC)C(=S)N/N=C1/C(=O)Nc2ccccc21 | 815 nM |
| CCCC1N=C(N)N=C(N)N1c1ccc(C)cc1 (stereo not given) | 95.2 nM |
| COc1cc(-c2ccc3c(-c4ccc(C(=O)N5CCN(C)CC5)cc4)n[nH]c3n2)cc(OC)c1OC | 1330 nM |
| O=C(C=Cc1ccc(Cl)c(Cl)c1)NCCCCCN1CCC(CCNS(=O)(=O)c2ccc(F)cc2)CC1 | 1090 nM |
| CCN(CC)C(=O)C(=O)c1c[nH]c2ccc(Cl)cc12 | 81.1 nM |
| COCCN1CCN(Cc2ccc(-c3ccc(-c4nc5cc(F)ccc5[nH]4)cc3)cc2)CC1 | 717 nM |
| Cc1cc(O)cc2c(C3CCN(CC4CCN(C(=O)/C=C/c5ccc(Cl)c(Cl)c5)CC4)CC3)c[nH]c12 | 1090 nM |
| O=C(NCc1ccc(C(=O)NC2CCCCC2)cc1)c1ccc(O)c(-c2ccc(Cl)c(Cl)c2)c1 | 875 nM |
| O=C(CCc1c[nH]cn1)Nc1cccc(-c2cccc(-c3nc4cc(C(F)(F)F)ccc4[nH]3)c2)c1 | 132 nM |
| CC(=O)Nc1ccc(OCCN(Cc2ccccc2OC(F)(F)F)c2ccc(C(F)(F)F)c(C#N)c2)c(Cl)c1 | 456 nM |
| Cc1[nH]c(C)c([N+](=O)[O-])c(=O)c1-c1ccc(Oc2ccccc2)cc1 | 266 nM |
| CC[C@H]1CN2CC[C@H]1C[C@H]2[C@H](O)c1ccnc2ccc(OC)cc12 | 154 nM |
